Among the data in PubChem BioAssay (NCI) are GI50 and TGI values, retold here.

Common to all, as to test: growth of human tumour cells (NCI), 48 h
Test [1] relates to NCI/ADR-RES ovarian.
Test [2] deals with TK-10 renal.
For test [3], the system named is LOX IMVI melanoma.
Test [4] relates to OVCAR-5 ovarian.
Test [5] deals with KM12 colon.
In test [6] the test system is ACHN renal.
In test [7] the test system is HL-60(TB) leukemia.
In test [8] the test system is IGROV1 ovarian.
In test [9] the test system is OVCAR-8 ovarian.
In test [10] the test system is UO-31 renal.

“And” between values parts separate entries of the source, which are not always exact repeats. Identical values can stand only once.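 Method: 48-hour compound exposure of cells in 96-well plates, five concentrations, linear interpolation of endpoints. GI50: concentration for 50% inhibition of growth. At the TGI there is no net growth.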

As for `O=[N+]([O-])c1ccc(Nc2ccccc2-c2ccccc2)c2nonc12`, the GI50 in test [1] is 13.6 µM; in [2], 22.8 µM; in [3], 12.8 µM; in test [4], 22.4 µM; in test [5], 13.9 µM; in test [6] it was 20.8 µM. Also, the GI50 in [7] was 17.8 µM; in test [8], 12 µM; in [9], 21.1 µM; in test [10] it was 8.14 µM. Further, the TGI in test [1] came to 34.7 µM; in [2], 59.6 µM; in test [3], 26.6 µM; in test [4] it was 62.9 µM; in test [5], 32.5 µM; in test [6], 87.5 µM. For the same compound, the TGI in [7] is 51.1 µM; in [8], > 63.6 µM; in test [9] it was 75.9 µM; in test [10], 29.9 µM.

Regarding `COc1cccc2c1C(=O)c1c(O)c3c(c(O)c1C2=O)CC(O)(C(C)=O)CC3OC1CC(N)C(O)C(C)O1` (stereo unspecified), the GI50 was 3.52 µg/mL in [1]; 0.273 µg/mL in [2]; 0.0166 µg/mL in [3]; 0.0674 µg/mL in [4]; 0.0445 µg/mL in test [5]; 0.0176 µg/mL in test [6]. In addition, the GI50 in [9] is 0.0205 µg/mL; in test [10], 0.26 µg/mL. Further, the TGI in [1] was found to be 25 µg/mL; in test [2] it was 18.6 µg/mL; in [3], 1.57 µg/mL; in test [4], 3.46 µg/mL; in test [5], 0.776 µg/mL; in test [6] it was 0.1 µg/mL. The TGI in test [7] was determined as 0.0356 µg/mL; in test [8], 1.68 µg/mL; in [9], 0.393 µg/mL; in test [10] it was 5.46 µg/mL.

Regarding `C=C(Cn1c(=O)c2ccccc2c2ccccc21)c1ccc(C(=O)Nc2ccccc2N)cc1`, the GI50 in test [1] was 3.78 µM; in test [2] it was 33.8 µM; in test [3], 7.77 µM; in test [4], > 100 µM; in [5] it was 25.6 µM; in test [6] it was 43.4 µM. The GI50 is 0.188 µM in [7], 1.36 µM in test [8], 11.8 µM in test [9] and 2.28 µM in test [10]. Further, the TGI in [1] is > 57.8 µM; in [2], > 100 µM; in test [3], > 100 µM; in test [4] it was > 100 µM; in [5] it was > 100 µM; in test [6] it was > 100 µM. The values for the TGI in [8], in test [9] and in [10] were > 29 µM, > 100 µM and > 63.2 µM, respectively.

In the case of `Cc1nc2ccc(CN(C)c3ccc(C(=O)N[C@@H](CCC(=O)O)C(=O)O)s3)cc2c(=O)[nH]1`, the GI50 in test [1] is < 0.0149 µM; in test [10], < 0.01 µM. Besides, the TGI in test [1], in [2], in test [3], in [4], in test [5] and in [6] was > 100 µM each time. Besides, the TGI in [7], in test [8], in test [9] and in [10] was > 100 µM throughout.

With `CCSc1nnc2c(-c3ccccc3)n[nH]c2n1`, the TGI in test [1], in test [2], in test [3], in test [4], in test [5] and in test [6] was > 100 µM each time. Also, the TGI in [7], in test [8], in test [9] and in test [10] was > 100 µM throughout.

In the case of `CNC(=O)c1cc(COc2nnc(Nc3ccc(Cl)cc3)c3ccoc23)ccn1`, the GI50 in [1] is 4.48 µM and > 10 µM; in test [2], 3.59 µM and 8.84 µM; in [3], 6.41 µM and > 10 µM; in [4], 12.3 µM and > 10 µM; in test [5], 21.5 µM and > 10 µM; in test [6] it was 3.86 µM and 7.18 µM. Further, the GI50 in [7] was > 100 µM; in [8], 11.4 µM and > 10 µM; in [9], 3.66 µM and 5.78 µM; in test [10] it was 3.3 µM and 4.57 µM. Moreover, the TGI in test [1] was > 42.5 µM; in test [2], 11.8 µM and > 10 µM; in test [3] it was 25.1 µM and > 10 µM; in test [4], 38.9 µM and > 10 µM; in test [5] it was 80.9 µM and > 10 µM; in test [6], 15.4 µM and > 10 µM. Further, the TGI in test [7] is > 100 µM; in test [8], 27.4 µM and > 10 µM; in [9] it was 17.1 µM and > 10 µM; in [10], 15 µM and > 10 µM.

In the case of `CC1=NN(C(=O)c2ccccc2O)C(=O)/C1=C/c1ccc([N+](=O)[O-])cc1`, the GI50 was 0.449 µM in [1]; 4.83 µM in [2]; 0.854 µM in [3]; 2.62 µM in [4]; 0.779 µM in test [5]; 0.545 µM in test [6]. The GI50 in test [7] was 1.08 µM; in test [8], 0.44 µM; in test [9], 1.44 µM; in test [10], 0.358 µM. Besides, the TGI in test [2] was > 100 µM; in test [3], > 40.9 µM; in [4] it was > 100 µM; in test [5], > 100 µM; in [6], > 100 µM; in test [9], > 100 µM. Moreover, the TGI in [10] is 1.88 µM.

Regarding `CC/C(Cc1ccccc1)=C(\c1ccc(OCCN2CCCCCC2)cc1)c1ccc(OC(=O)NCc2ccccc2)cc1`, the GI50 was 3.9 µM in test [1]; 8.2 µM in [2]; 0.924 µM in [3]; 6.2 µM in test [4]; 1.61 µM in [5]; 1.49 µM in [6]. Further, the GI50 was 1.18 µM in test [7], 2.31 µM in test [8], 1.67 µM in test [9] and 2.03 µM in test [10]. Also, the TGI in test [1] was determined as 12.3 µM; in test [2] it was 16 µM; in test [3], 1.75 µM; in test [4], 12.8 µM; in test [5], 5.49 µM; in [6], 5.34 µM. The TGI was 3.44 µM in test [7], 8.82 µM in test [8], 4.96 µM in test [9] and 7.98 µM in test [10].
